Results published in patent US5817624A, “Permeation enhancer compositions for increased absorption of therapeutic proteins through the colonic membrane” (Alza Corporation, priority 1995, dated 1998).
Several values for one entry are separate records, joined by “and”; a condition that tells them apart may be missing. Equal values may be shown once. Read-outs that look alike come from different tables or passages of the source.

Tested on: fasted anesthetized Sprague-Dawley male rats
Details: for % Maximum Decrease 0-60 mins (blood glucose): sodium bovine insulin 0.5 mg/kg, 1 mL peanut oil, intracolonic bolus, n = 3-4
Source text: An animal model commonly known as the "intracolonic ligated model" was employed for testing formulations. Surgical preparation of a fasted anesthetized 0.3-0.5 kg Sprague-Dawley male rats proceeded as follows. A segment of proximal colon was isolated and the colon was flushed of fecal materials. The segment was ligated at both ends while a catheter was placed in the lumen and exteriorized above the skin for delivery of test formulation. The colonic contents were flushed out and the colon was returned to the abdomen of the animal. Depending on the experimental set up, the test formulation was added after the segment was filled with 1 mL/kg of 20 mM sodium phosphate buffer, pH 7.4, to more accurately simulate the actual colon environment in a clinical situation.
Rats were allowed to equilibrate for approximately 1 hour after surgical preparation and prior to exposure to each test formulation. Immediately prior to test solution administration, a 0.3-0.5 mL blood sample was taken from the jugular catheter of the rats and analyzed for glucose content using an Ames GlucometerM® blood glucose meter utilizing Glucostix® reagent strips. Withdrawn blood was replaced with an equal volume of heparinized Ringer's. Sodium bovine insulin was formulated to be delivered at a dose of 0.5 mg/kg body weight. Initially, all candidate enhancers were tested at a concentration of 300 mM. […] The solutes (enhancer and insulin) were suspended in 1 mL peanut oil (except where noted) and mixed using a vortex mixer. Test solutions were vortexed immediately prior to aspiration into individual delivery syringes.
After determination of baseline blood glucose levels, the test solution was administered as an intracolonic bolus and delivered at 1 ml/kg adjusting for either the 100 μl or 250 μl dead volume of the colonic catheter. Blood samples obtained from the jugular catheter were taken at 0, 5, 15, 30, 60, 120, 180 and 240 minutes and analyzed for blood glucose concentration. At the end of the 4 hour test period, the rats were euthanized with an overdose of pentobarbital. Colonic segments from each rat were excised and opened longitudinally along the anti-mesenteric border. Each segment was observed macroscopically for irritation and any abnormality noted. The excised colons were placed on graph paper and measured to approximate colonic surface area. Blood glucose dynamics are reported as the percent change from initial blood glucose levels.
Rats were prepared as described in EXAMPLE 1. […] The open symbols denote the formulations delivered in oil whereas the closed symbol denotes the formulation without oil.

Compound	% Maximum Decrease 0-60 mins (blood glucose) (enhancer 300 mM)	further results
O=C([O-])c1cc(O)ccc1O.[Na+] [2,5-Dihydroxybenzoic acid, Na salt]	1% and 9%	–
Nc1ccc(C(=O)[O-])c(O)c1.[Na+] [4-Amino salicylic acid, Na salt]	10%	–
Nc1ccc(O)c(C(=O)[O-])c1.[Na+] [5-Amino salicylic acid, Na salt]	13%	% Maximum Decrease 0-60 mins (blood glucose) (enhancer 100 mM): 13%
COc1ccc(O)c(C(=O)[O-])c1.[Na+] [5-Methoxysalicylic acid, Na salt]	9%	–
O=C([O-])c1ccccc1.[Na+] [Benzoic acid, Na salt]	0%	–
O=C([O-])c1ccccc1O.[Na+] [Na Salicylate, sodium salicylate]	–	rats that died (enhancer 250 mM with insulin 0.5 mg/kg in 1/8 mL peanut oil): 2/4; effect on blood glucose levels over a 4 hour period (enhancer 300 mM formulated without insulin): no effect; decrease in fasting blood glucose levels from pre-exposure levels (significance) (enhancer 300 mM with sodium bovine insulin (0.5 mg/kg) and peanut oil): significant decrease; rats that died (enhancer 600 mM with insulin 0.5 mg/kg and peanut oil, death due to low blood glucose levels): 4/4
[Cl-].[Na+] [NaCl]	2%	–
